Experimental data as given in PubChem BioAssay (NCI).
Several values for one entry are separate records, joined by “and”; a condition that tells them apart may be missing. Equal entries are not always repeated.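 In this assay, cells in 96-well plates receive the compound at five concentrations for 48 hours. Endpoints are linearly interpolated between the surrounding concentrations. Abbreviation: GI50, concentration required for 50% inhibition of growth. TGI: total growth inhibition.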

Tests used:
Test in all cases: NCI anticancer screen, dose series, 48 h
K-562 leukemia = test system: K-562 leukemia
UACC-257 melanoma = test system: UACC-257 melanoma
SNB-19 CNS = test system: SNB-19 CNS
HL-60(TB) leukemia = test system: HL-60(TB) leukemia
PC-3 prostate = test system: PC-3 prostate
UACC-62 melanoma = test system: UACC-62 melanoma
HCT-15 colon = test system: HCT-15 colon
OVCAR-4 ovarian = test system: OVCAR-4 ovarian
COLO 205 colon = test system: COLO 205 colon
NCI-H460 lung = test system: NCI-H460 lung

SMILES | GI50 (K-562 leukemia) | TGI (K-562 leukemia) | GI50 (UACC-257 melanoma) | TGI (UACC-257 melanoma) | GI50 (SNB-19 CNS) | TGI (SNB-19 CNS) | GI50 (HL-60(TB) leukemia) | TGI (HL-60(TB) leukemia) | GI50 (PC-3 prostate) | TGI (PC-3 prostate) | GI50 (UACC-62 melanoma) | TGI (UACC-62 melanoma) | GI50 (HCT-15 colon) | TGI (HCT-15 colon) | GI50 (OVCAR-4 ovarian) | TGI (OVCAR-4 ovarian) | GI50 (COLO 205 colon) | TGI (COLO 205 colon) | GI50 (NCI-H460 lung) | TGI (NCI-H460 lung)
COc1cc(/C=C/C(=O)c2cccc(-n3cc(-c4cc(OC)c(OC)c(OC)c4)[nH]c3=O)c2)cc(OC)c1OC | 0.591 µM | > 100 µM | 2.22 µM | 5.45 µM | 4.07 µM | 15.8 µM | 0.922 µM | 6.39 µM | 2.63 µM | 18.6 µM | 1.87 µM | 4.01 µM | 1.89 µM | 7.51 µM | 3.77 µM | 55.6 µM | 1.52 µM | 3.13 µM | 1.73 µM | 3.98 µM
CC(=O)OCC1OC(n2c(=S)n(-c3ccc([N+](=O)[O-])cc3)c(=O)c3ccccc32)C(OC(C)=O)C(OC(C)=O)C1OC(C)=O (centres undefined) | 10.7 µM and 27.2 µM | > 100 µM | 13 µM and 28.3 µM | 38.1 µM and 97.3 µM | 24.4 µM | 47.5 µM and 69.4 µM | 4.13 µM and 25.2 µM | 29.4 µM and 59.1 µM |  | 39.9 µM | 17.6 µM | 34 µM and 40.7 µM |  | > 100 µM |  | 60.3 µM and 40.9 µM | 31.2 µM | > 100 µM |  | > 69.8 µM and 68.2 µM
CCCCN(CCCC)C(=O)[C@H](CC)[C@@H]1CC[C@@H](C)[C@@H]([C@H](C)[C@@H](O)[C@@H](C)C(=O)[C@H](CC)C2O[C@]3(C=C[C@@H](O)[C@]4(CC[C@@](C)([C@H]5CC[C@](O)(CC)[C@H](C)O5)O4)O3)[C@H](C)C[C@@H]2C)O1 (some centres undefined) | 2.66 µM | 18.4 µM | 2.9 µM | 9.71 µM | 3.46 µM | > 100 µM | 2.35 µM | 5.7 µM | 2.05 µM | 16.8 µM | 1.47 µM | 3.6 µM | 2.31 µM | 6.12 µM | 2.85 µM | 36 µM | 2.45 µM | 5.99 µM | 1.99 µM | 4.47 µM
CCOC(=O)[C@@H](C)C[C@H](Cc1ccccc1)NC(=O)c1csc([C@@H](C[C@H](C(C)C)N(C)C(=O)[C@@H](NC(=O)[C@H]2CCCCN2C)C(C)(C)CC)OC(C)=O)n1 | < 0.00167 µM | > 16.7 µM | 0.0442 µM | > 16.7 µM | < 0.00167 µM | > 16.7 µM | < 0.00167 µM | 0.0034 µM | < 0.00167 µM | > 16.7 µM | < 0.00167 µM | > 16.7 µM | < 0.00167 µM | > 5.93 µM | 0.0146 µM | > 16.7 µM | < 0.00167 µM | 0.003 µM | < 0.00167 µM | > 12.9 µM
C/C(=N\O)c1ccc2ccc3ccccc3c2c1 |  | 93 µM |  | 53.4 µM |  | > 100 µM |  | 66.6 µM |  | > 100 µM |  | 45.2 µM |  | > 100 µM |  | 66.5 µM |  | 76.6 µM |  | > 100 µM
O=C1/C(=C/c2ccc(Cl)c(Cl)c2)CN(C(=O)C(Cl)Cl)C/C1=C\c1ccc(Cl)c(Cl)c1 | 0.0369 µM | > 36.2 µM | 0.666 µM | 2.24 µM | 0.11 µM | 0.306 µM | 0.198 µM | 1.05 µM | 0.0737 µM | 0.712 µM | 0.197 µM | 0.459 µM | 0.033 µM | 0.802 µM | 0.0743 µM | 1.49 µM | 0.178 µM | 0.638 µM | 0.261 µM | 0.935 µM
CSc1ccc(C2=C(c3ccccc3)C(=O)OC2)cc1 | 0.101 µM | > 100 µM |  | > 100 µM | 0.804 µM | > 100 µM | 0.35 µM | 2.07 µM | 0.884 µM | 21.1 µM | 0.715 µM | 53.8 µM | 0.202 µM | 3.46 µM | 21.2 µM | > 100 µM | 0.763 µM | > 100 µM | 1.29 µM | > 34.8 µM
c1ccc(-c2oc(-c3ccccc3)c(CN3CCCCC3)c2CN2CCCCC2)cc1 | 1.94 µM | 6.51 µM | 3 µM | 8.08 µM | 2.64 µM | 8.72 µM | 1.96 µM | 5.28 µM | 2.34 µM | 7.73 µM | 1.79 µM | 4.35 µM | 1.79 µM | 10.3 µM | 2.65 µM | 13.6 µM | 1.45 µM | 5.01 µM | 3.25 µM | 14.2 µM
CN=C(N)c1ccc(N=C(N)c2ccc(-c3ccc(C(N)=Nc4ccc(C(N)=NC)cc4)cc3)cc2)cc1 | 89.5 µM | > 100 µM | > 100 µM | > 100 µM | > 100 µM | > 100 µM | 58.3 µM | > 100 µM | > 100 µM | > 100 µM | 30.5 µM | > 100 µM | > 100 µM | > 100 µM | > 100 µM | > 100 µM | 99.5 µM | > 100 µM | 55.8 µM | > 100 µM
C#Cc1cccc(Nc2ncnc3cc(NC(=O)CCl)ccc23)c1 | 0.802 µM | 25 µM | 3.76 µM | 8.12 µM | 2.96 µM | 6.03 µM | 4.45 µM | 11.3 µM | 3.69 µM | 8.33 µM | 1.53 µM | 4.99 µM | 0.743 µM | 3.42 µM | 2.16 µM | 6.95 µM | 3.62 µM | 7.45 µM | 2.89 µM | 6.63 µM
CN1CCN(CC(=O)N(C)c2ccc(N=C(c3ccccc3)c3c(O)[nH]c4ccc(C#N)cc34)cc2)CC1 | 0.575 µM | 11.6 µM | 2.5 µM | 6.2 µM | 4.16 µM | 16.6 µM | 1.18 µM | 6.36 µM | 2.37 µM | 17 µM | 4.57 µM | 14.3 µM | 3.55 µM | 14.9 µM | 3.03 µM | 14 µM | 0.528 µM | 12.4 µM | 1.38 µM | 3.25 µM
COc1cc2cc(Oc3ccc(NC(=O)Nc4cc(C(F)(F)F)cc(C(F)(F)F)c4)cc3)c(C)nc2cc1OCCN1CCOCC1 | 1.41 µM | 5.5 µM | 1.4 µM | 4.24 µM | 1.88 µM | 7.42 µM | 1.62 µM | 4.93 µM | 1.18 µM | 5.16 µM | 1.67 µM | 6.9 µM | 1.1 µM | 2.77 µM | 1.88 µM | 6.95 µM | 1.02 µM | 2.18 µM | 1.66 µM | 5.52 µM
Clc1nccc2c(-c3csc(-c4c[nH]c5ccc(Br)cc45)n3)c[nH]c12 | 2.73 µM | 9.44 µM | 2.68 µM | 4.88 µM | 3.25 µM | 11.6 µM | 2.64 µM | 14.1 µM | 3.86 µM | 14 µM | 2.19 µM | 4.84 µM | 1.4 µM | 3.33 µM | 3.25 µM | 15.9 µM | 1.8 µM | 5.61 µM | 2.16 µM | 4.58 µM
COc1cccc(/C=C/C(=O)c2ccc3cc(OC)ccc3c2)c1 | 9.13 µM | > 50 µM | > 50 µM | > 50 µM | 14 µM | 47.3 µM | 17.5 µM | > 50 µM | 18.3 µM | > 50 µM | 8.35 µM | 21.9 µM | 9.73 µM | 30.8 µM | 24.7 µM | > 50 µM | 8.13 µM | 17 µM | 25.2 µM | > 50 µM
CN(C)c1ccc(/C=C\c2ccnc3ccccc23)cc1 | > 21.1 µM | > 100 µM | 8.39 µM | 79.4 µM | 10.6 µM | > 100 µM | > 20.2 µM | > 86.8 µM | 17.9 µM | > 100 µM | 6.18 µM | > 100 µM | 4.42 µM | > 100 µM | 9.77 µM | > 100 µM | 4.75 µM | 41.5 µM | 5.2 µM | > 91.8 µM
O=C(CS(=O)(=O)c1nc2ccccc2nc1-c1ccccc1)Nc1ccc(F)cc1 | 3.83 µM | 16.6 µM | > 100 µM | > 100 µM | 98.9 µM | > 100 µM | 1.8 µM | 10.3 µM | 26 µM | > 100 µM | 40.1 µM | > 100 µM | 39.9 µM | > 100 µM | 21.6 µM | 49.4 µM | 65.1 µM | > 100 µM | 88.8 µM | > 100 µM
O=C1NC(=NCc2ccccc2Cl)S/C1=C\c1ccc2ncccc2c1 | 12.7 µM | > 25 µM | > 25 µM | > 25 µM | 13.2 µM | > 25 µM | 10.1 µM | > 25 µM | > 25 µM | > 25 µM | 17.8 µM | > 25 µM | 4.33 µM | > 25 µM | 14.7 µM | > 25 µM | 8.04 µM | > 25 µM | 10.6 µM | > 25 µM
Oc1ccc(Br)cc1C=Nc1cccc(C(F)(F)F)c1 |  | > 100 µM |  | > 100 µM |  | > 100 µM |  | 34.4 µM |  | 33.3 µM |  | 71.1 µM |  | > 100 µM |  | > 100 µM |  | > 100 µM |  | > 100 µM
NS(=O)(=O)c1ccc(Nc2cc(-c3ccc(O)c(F)c3)[nH]n2)cc1 | > 25 µM | > 25 µM | > 25 µM | > 25 µM | > 25 µM | > 25 µM | > 25 µM | > 25 µM | > 25 µM | > 25 µM | > 25 µM | > 25 µM | > 25 µM | > 25 µM | 8.8 µM | > 25 µM | > 25 µM | > 25 µM | > 25 µM | > 25 µM
COC(=O)NC1C(C)OC(OC2C/C=C(/C)C3C=CC4C(OC5CC(OC6CCC(OC7CC(O)C(OC8CCC(O)C(C)O8)C(C)O7)C(C)O6)C(OC(C)=O)C(C)O5)C(C)CC(C)C4C3(C)/C(O)=C3/C(=O)OC4(CC(C=O)=CC(O)C4/C=C\2C)C3=O)CC1(C)[N+](=O)[O-] (centres undefined) | 0.218 µM | 11 µM and 12.1 µM | 1.09 µM | 2.47 µM and 11.1 µM | 0.0728 µM | 3.45 µM and 0.509 µM | 0.354 µM | 4.43 µM and 2.53 µM |  | 7.29 µM | 0.155 µM | 1.47 µM and 0.319 µM | 1.22 µM | 3.4 µM and 4.26 µM | 1.56 µM | 7.26 µM and 4.66 µM | 0.321 µM | 2.71 µM and 1.08 µM | 0.319 µM | 2.17 µM and 2.14 µM
O=C1NC(=S)S/C1=C\c1cn(-c2ccccc2)nc1-c1ccccc1 | 7.54 µM | > 100 µM | 13.2 µM | 73.9 µM | 6.14 µM | > 100 µM | 4.83 µM | 59.8 µM | 5.66 µM | > 100 µM | 3.36 µM | 15.1 µM | 4.71 µM | 23.2 µM | 8.14 µM | > 100 µM | 21.2 µM | 75.8 µM | 5.5 µM | 19.2 µM
